SMILES strings stand for the structures.

As for `O=C(Nc1ccc2c(c1)OCCO2)c1ccc(-c2cccs2)cc1` [Example 15, N-(2,3-Dihydro-benzo[1,4]dioxin-6-yl)-4-thiophen-2-yl-benzamide], the melting point is 192 to 195 °C.

As usually defined, the melting point is the temperature, or range, at which the solid turns liquid.

Values taken from patent US20050165028A1, “Vanilloid receptor ligands and their use in treatments” (priority 2004, published 2005).
